The target of series [1] is fluorescently labelled rhIDO1 (NT650-IDO1) (Homo sapiens, UniProt P14902). Briefly: Single-point MST binding assay at 250 µM. The following applies: 250 µM compound, 50 nM labelled rhIDO1; F-norm outside vehicle signal and SD.
Series [2] in a line: Potentiometric pKa determination (Sirius T3). The class given is physicochemical. The following applies: for exppKa: Sirius T3, Yasuda-Shedlovsky extrapolation to 0% methanol, first or only value. An excerpt: (§1) Confirmed IDO1 ligands were profiled for the calculation and experimental determination of their acidic constant (calcpKa, exppKa) and n-octanol/water partition coefficient (calclogP, explogP). […] Four of these compounds (19–22) were titrated with a potentiometric method to determine the relative exppKa and explogP, using a Sirius T3 instrument. The remaining two compounds (16, 17) were not experimentally analyzed because their calcpKa values were too close to the upper detection limit of the Sirius T3 instrument.
(§2) Acidic constants (pKa) and octanol/water partition coefficients (logP) of confirmed hit compounds were firstly calculated using the pKa and logP plugins of the program Marvin (Marvin v20.11, ChemAxon, Budapest, Hungary).
(§3) The experiments were set up with Sirius T3 control software (Sirius T3 v1.1.3.0, Pion Inc. Ltd., Forest Row, East Sussex, UK), specifying the volume of the stock solution to be used, molecular weight, number of expected pKa and their calculated values (calcpKa), predicted logP (calclogP), and titration mode (from pH = 2 to 12 for basic compounds, and from pH = 12 to 2 for acidic compounds). To avoid issues of poor solubility during the titration in ISA water, the pKa analyses were carried out in triplicate with different ratios of organic cosolvent methanol and water (50%, 40%, and 30% methanol). Considering the modification of water’s dielectric constant in the presence of an organic solvent, the pKa at 0% of co-solvent was obtained through the method of Yasuda–Shedlovsky (YS) extrapolation to zero [58]. The validity of the analysis was assessed with the r^2 of the YS method, and results were considered acceptable with an r^2 ≥ 0.9. Titration results were analyzed with Sirius T3 refine software (Sirius T3 v1.1.3.0, Pion Inc. Ltd., Forest Row, East Sussex, UK). Octanol/water partition coefficient (logP) was measured through a potentiometric titration in a biphasic system, using ISA water and n-octanol. Specifically, Sirius T3 control software uses three evaluation models of experimental logP, whose choice is based on the calculated logP values (calclogP < 1, “Low-logP” method; 1 < calclogP < 3, “Medium-logP” method; calclogP > 3, “High-logP” method). Accordingly, the “Medium-logP” method was selected to evaluate the experimental logP (explogP) of the selected compounds. The titration was performed in triplicate and the raw data were elaborated using Sirius T3 refine software. The quality of the analysis was evaluated by comparing the titration curve of each analysis by calculating a root mean square deviation (RMSD). All the analysis yielded RMSD values < 0.5.

The nature of series [3]: Potentiometric logP determination (Sirius T3). In kind it is physicochemical. The following applies: for logP: n-octanol/ISA water biphasic system, read-out: explogP.
Excerpt: as §1, §2, §3

The target of series [4] is T1, murine IDO1 (Mus musculus, UniProt P28776).
T1 construct: expressed in transfected cells
Briefly: Cellular assay of IDO1 inhibition, L-Kyn production in P1.HTR cells. In kind it is cell-based. The following applies: 16 h; for FC L-Kyn (fold change of L-Kyn production): 30 µM compound, P1.HTR cells stably transfected with murine IDO1, versus vehicle, mean ± SD. The protocol: The functional activity of confirmed IDO1 ligands was estimated in murine mastocytoma cell line (P1.HTR) stably transfected with murine IDO1. Specifically, P1.HTR cells were cultured in presence of each compound at 30 µM concentration.
(§4) Briefly, P1.HTR cells, a highly transfectable clonal variant of mouse mastocytoma P815 [59], were cultured in Iscove’s modified Dulbecco’s medium supplemented with 10% fetal calf serum (FCS), 1 mM glutamine and penicillin/streptomycin at 37 °C in a humidified 7% CO2 incubator. P1.HTR cells were transfected by electroporation with plasmid constructs coding for murine IDO1 (P1.IDO1). A stable transfectant cell line was obtained by puromycin selection.
A cell culture incubated with an equivalent volume of DMSO (the vehicle in which compounds were solubilized) was used as a reference control. After the incubation, supernatants of cell cultures were recovered, and kynurenine concentration was detected by the HPLC method. Every cell assay was conducted in triplicate. Results were expressed as the mean ± standard deviation of the kynurenine fold change (L-Kyn FC), meaning the ratio between kynurenine concentration secreted in the supernatant of the compound-treated versus vehicle-treated cells. The detection of L-Kyn concentrations was performed by using a PerkinElmer, series 200 HPLC instrument. A Kinetex C18 column (250 × 4.6 mm, 5 μm, 100 A; Phenomenex, CA, USA), maintained at the temperature of 25 °C and a pressure of 1800 PSI, was used. […] L-Kyn was detected at 360 nm by an UV detector. The software TURBOCHROM 4 was used for evaluating the concentration of L-Kyn in samples by means of a calibration curve. The detection limit of the analysis was 0.05 μM.

The target of series [5] is recombinant human IDO1 (rhIDO1) (Homo sapiens, UniProt P14902). Briefly: Full-point MST binding assay against labelled rhIDO1. The following applies: for BEI (binding efficiency index): BEI = pKd/MW (kDa).
For series [6], the system named is P1.HTR cells. Briefly: Cytotoxicity seen in the P1.HTR cellular assay. The class given is cell-based, mouse. The settings on record: 30 µM, data not shown. As for the experimental part: Accordingly, no correlation could be found between cellular activities and enzymatic binding data of tested compounds.
as §4, with “A cellular assay was performed to assess the functional activity of confirmed hit compounds against IDO1. Briefly,” for “Briefly,”, “selection. Cells at the concentration of 0.25 × 10^6 cell/mL were incubated with 30 µM of compounds for 16 h, using a culture medium containing L-Trp at a concentration of 78.4 µM and a HEPES buffer at pH 7.2.” for “selection.”

As usually defined, the Kd is the concentration at which binding is half-saturated.

T1 sequence (P28776 whole entry): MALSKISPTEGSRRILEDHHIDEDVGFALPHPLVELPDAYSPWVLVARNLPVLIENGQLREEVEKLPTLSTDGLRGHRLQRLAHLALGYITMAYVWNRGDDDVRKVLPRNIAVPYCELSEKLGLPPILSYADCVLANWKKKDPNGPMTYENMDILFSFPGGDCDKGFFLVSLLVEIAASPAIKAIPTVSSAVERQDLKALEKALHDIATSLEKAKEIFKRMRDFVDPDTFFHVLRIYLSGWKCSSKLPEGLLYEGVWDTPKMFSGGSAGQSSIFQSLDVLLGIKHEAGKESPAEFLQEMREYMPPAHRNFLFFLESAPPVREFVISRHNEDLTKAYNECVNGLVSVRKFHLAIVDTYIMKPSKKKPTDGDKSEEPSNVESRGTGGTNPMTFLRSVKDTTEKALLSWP
Chain of fluorescently labelled rhIDO1 (NT650-IDO1) (P14902 whole entry): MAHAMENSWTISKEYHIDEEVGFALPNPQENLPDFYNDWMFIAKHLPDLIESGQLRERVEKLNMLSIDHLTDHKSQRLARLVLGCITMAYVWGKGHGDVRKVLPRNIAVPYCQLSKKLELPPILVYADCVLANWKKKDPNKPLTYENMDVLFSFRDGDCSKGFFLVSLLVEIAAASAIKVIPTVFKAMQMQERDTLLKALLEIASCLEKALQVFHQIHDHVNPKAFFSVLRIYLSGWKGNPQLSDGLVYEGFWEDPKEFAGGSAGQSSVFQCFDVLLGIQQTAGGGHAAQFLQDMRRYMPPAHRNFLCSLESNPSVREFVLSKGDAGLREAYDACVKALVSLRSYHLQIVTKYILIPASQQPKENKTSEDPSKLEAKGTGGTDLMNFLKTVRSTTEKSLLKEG
Chain of recombinant human IDO1 (rhIDO1) (P14902 whole entry): as above

Regarding `NC(=O)Cn1c(/C=C/c2ccccc2)nc2ccccc21` [VIS539], the “Single-point MST classification” value in series [1] is listed as “false positive hit compound”.
For the molecule `OC(CC1c2ccccc2-c2cncn21)C1CCCCC1` (stereo not drawn) [compound 10, NLG919 analogue, reference compound], in series [2], the exppKa was 6.7. The explogP in series [3] (n-octanol/water) was 3.2.
On to `O=C(NC1CCC(F)(F)CC1)c1ccc2cc[nH]c2c1` [VIS557 (18)], for which the “Inhibition in P1.HTR cells (in words)” value in series [4] (30 µM) was “weak inhibitor”. Also, in series [5], the Kd was determined as 4.83 ± 0.61 µM and the “BEI (binding efficiency index)” value is listed as 19. For the same molecule, in series [1], the “Single-point MST classification” value is listed as “binders”.
On to `O=C(NCc1ccccn1)c1nn[nH]c1-c1ccc(F)cc1` [VIS597 (21)], for which the “FC L-Kyn (fold change of L-Kyn production)” value in series [4] is 0.56 ± 0.05. In series [5], the Kd came out at 73.3 ± 16.2 µM and the “BEI (binding efficiency index)” value stood at 14. Moreover, the “Single-point MST classification” value in series [1] is on record as “binders”. Besides, the exppKa in series [2] is 3.9. Moreover, the “exppKa (second value)” value in series [2] (Sirius T3, value printed after the slash) is recorded as 6.3. For the same molecule, the logP in series [3] came to 2.
For the molecule `O=C(/C=C/c1ccco1)c1ccc(O)cc1` [VIS574 (22)], in series [5], the Kd worked out at 37 ± 16.8 µM and the “BEI (binding efficiency index)” value came to 21. Besides, in series [2], the exppKa is reported as 7.8. In series [3], the logP was 2.6.
Regarding `O=C(Nc1nnc(-c2ccc(Cl)cc2)o1)C1CC1` [VIS572 (19)], in series [5], the Kd was 51.9 ± 18.4 µM and the “BEI (binding efficiency index)” value is on record as 16. Also, the “Single-point MST classification” value in series [1] is on record as “binders”. In addition, in series [2], the exppKa is given as 8.1. In addition, in series [3], the logP turned out to be 2.1.
In the case of `O=C1Nc2ccccc2/C1=C/C(=O)c1ccccc1` [VIS540 (16)], the Cytotoxicity entry in series [6] is “cytotoxic”. Also, in series [5], the Kd amounted to 37.5 ± 11.5 µM and the “BEI (binding efficiency index)” value was 18. Besides, in series [1], the “Single-point MST classification” value is “binders”.
For `NC(=O)C1CCN(c2ccc3cccc(O)c3n2)CC1` [VIS580 (20)], in series [5], the Kd came out at 80.7 ± 10.6 µM and the “BEI (binding efficiency index)” value turned out to be 15. Further, in series [1], the “Single-point MST classification” value is recorded as “binders”. In series [2], the exppKa is given as 5.7. The logP in series [3] was found to be 1.9.
On to `CN(C(=O)Nc1c[nH]c2ccccc12)c1ccccc1` [VIS544 (17)], for which the “FC L-Kyn (fold change of L-Kyn production)” value in series [4] worked out at 0.55 ± 0.02. Besides, in series [5], the Kd was 59.3 ± 22.9 µM and the “BEI (binding efficiency index)” value is 16. Besides, the “Single-point MST classification” value in series [1] is given as “binders”.

The record behind these values is publication PMC8999677, “Critical Assessment of a Structure-Based Screening Campaign for IDO1 Inhibitors: Tips and Pitfalls” (International Journal of Molecular Sciences, 2022).
